Measurements taken from US11759461B2, “Small molecule inhibitors of cancer stem cells and mesenchymal cancer types” (The Scripps Research Institute, priority 2017, dated 2023).
pIC50: −log10 of the molar value. Where two headings read alike, the source gives them in different places.

Legend:
[1] = system: FOXC2-expressing HMLER cells; experiment: Cell Titer Glo viability of FOXC2-HMLER cells (high throughput screen and 10-point response); assay type: cell-based; settings: Homo sapiens
In short: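 Viability after 72 h compound exposure was measured as Cell Titer Glo luminescence. FOXC2-HMLER and parental HMLER cells, 1,000 per well in MEGM medium, were dosed 1 h after plating; screening concentration was 2 μM.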

[2] = system: STS cell lines (HT 1080, SW684, RD, GCT, SW872, SW982); experiment: Anti-proliferative activity against soft tissue sarcoma cell line panel; assay type: cell-based
Excerpt: (§1) The propagation conditions and generation of FOXC2-HMLER, HMLER, SNAIL-HMLER, SNAIL-HMLE, and SUM159 cells have been described previously (Mani (2008)). MCF-7, HepG2, HCT116, and MDA-MB-231 cells were from ATCC and maintained in DMEM medium (Corning) supplemented with 10% FBS (Corning) with Anti-anti (Gibco). The soft tissue sarcoma cell line panel was purchased from ATCC (TCP-1019) and maintained in the recommended medium for each cell type. HUVEC cells (pooled donor) were maintained in EBM-2 medium (both from Lonza Walkersville). Primary human lung fibroblasts were maintained in Fibroblast Medium (both from Sciencell Research Laboratories). For cell growth experiments, HLFs were grown in DMEM supplemented with 2% FBS and Anti-anti. For all experiments, primary human cells were used at a passage no greater than 4.
For high throughput screening, FOXC2-HMLER and HMLER cells were plated at 10^3 cells per well in white 384-well plates in 50 μL of MEGM medium (Lonza). Cells were allowed to attach for one hour before compound was transferred to each well as a DMSO solution using a 100 nL pintool head affixed to a PerkinElmer FX instrument. After 72-hour incubation, 30 μL of a Cell Titer Glo solution (diluted 1:6 in water, Promega) was dispensed into each well and luminance values were recorded using an Envision plate reader. […] Selected hit compounds were reordered from ChemDiv and tested for selective toxicity in 10-point response assays as above. All other miniaturized, selective viability experiments were performed as above using the indicated growth medium.
The anti-proliferative activity of Compound 1 was assessed against a selection of soft tissue sarcomas (STS), which collectively refers to a broad grouping of over 50 subtypes of connective tissue derived cancers for which targeted therapies are lacking (Zambo (2014)). […]
A panel of 6 STS cell lines were evaluated, which cell lines included the histological subtypes of fibrosarcoma (HT 1080, SW684), rhabdomyosarcoma (RD), fibrous histiocytoma (GCT), liposarcoma (SW872), and synovial sarcoma (SW982). […]

VIM = target: T1, VIM (Homo sapiens, UniProt P08670); experiment: Immunofluorescent analysis of VIM filamentous architecture in HUVECs; assay type: cell-based; settings: one-hour treatment
T1 construct: endogenous in cells; host or cells: FOXC2-HMLER
T1 sequence (P08670 whole entry): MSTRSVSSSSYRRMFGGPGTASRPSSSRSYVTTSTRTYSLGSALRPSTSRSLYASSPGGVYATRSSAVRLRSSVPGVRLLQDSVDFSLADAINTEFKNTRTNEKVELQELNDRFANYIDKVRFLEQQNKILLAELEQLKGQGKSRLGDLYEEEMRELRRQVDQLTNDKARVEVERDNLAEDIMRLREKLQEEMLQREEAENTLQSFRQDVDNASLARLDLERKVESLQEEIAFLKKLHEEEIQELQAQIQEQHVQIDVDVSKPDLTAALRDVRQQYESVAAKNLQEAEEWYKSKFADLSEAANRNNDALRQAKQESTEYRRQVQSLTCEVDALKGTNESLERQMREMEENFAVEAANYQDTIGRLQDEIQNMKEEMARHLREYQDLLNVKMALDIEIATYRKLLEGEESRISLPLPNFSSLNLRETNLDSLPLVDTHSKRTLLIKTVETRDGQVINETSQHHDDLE

[3] = system: FOXC2-HMLER, SNAIL-HMLER, SUM159, and MDA-MB-231 cells; experiment: In vitro mammosphere formation assay; assay type: cell-based, human; settings: 1 μM compound during assay (14 days)
Protocol: FIG. 3: Quantification of mammospheres from an in vitro mammosphere formation assay with the indicated cell types. Pretreatment indicates a 72-hour treatment with 1 μM Compound 1 before plating in mammosphere formation conditions. The expression “during assay” indicates 1 μM compound treatment during the mammosphere assay (14 days) (n=3, mean and s.d.).
Epithelial-mesenchymal transition (EMT) induction endows breast cancer cells with the ability to grow as mammospheres in culture (Mani (2008)).

[4] = system: SNAIL-HMLE, MDA-MB-231, and SUM159; experiment: Growth inhibition of additional mesenchymal breast cancer cell lines; assay type: cell-based, human; settings: MDA-MB-231, SUM159, express FOXC2 from endogenous locus
Excerpt: as §1
(§2) For high throughput screening, FOXC2-HMLER and HMLER cells were plated at 10^3 cells per well in white 384-well plates in 50 μL of MEGM medium (Lonza). Cells were allowed to attach for one hour before compound was transferred to each well as a DMSO solution using a 100 nL pintool head affixed to a PerkinElmer FX instrument. After 72-hour incubation, 30 μL of a Cell Titer Glo solution (diluted 1:6 in water, Promega) was dispensed into each well and luminance values were recorded using an Envision plate reader. […]

control HMLER cells = experiment: Cell Titer Glo viability of control HMLER cells; assay type: cell-based; settings: Homo sapiens; 72-hour incubation; read-out: HMLER IC50
Excerpt: An engineered cancer cell line HMLER as an isogenic screening system was employed to identify compounds that are selectively toxic to the FOXC2 positive genotype. HMLER cells are derived from mammary epithelial cells (HMECs), but are virally transformed with the […] oncogene (G12V), human telomerase reverse transcriptase (hTERT), and SV40 large-T antigen (B. Elenbaas, B. et al. Genes Dev. 15 (2001) 50-65). Expression of these genes endows HMLER cells with functional immortality and tumorigenic potential at high seeding number (>10^6 cells; Hollier (2013)). […]
as §2, with “Cells were allowed to attach for one hour before compound was transferred to each well as a DMSO solution using a 100 nL pintool head affixed to a PerkinElmer FX instrument.” left out
More specifically, in the high throughput screening assay above, each cell line was plated at 1,000 cells per well in 384-well plates, treated for 72 hours with 2 μM of test compound, and the viability of each line was determined in parallel by Cell Titer Glo (Promega) luminance measurements. […]

pIC50 ([2]; Homo sapiens, SW872 liposarcoma cell line, read-out: IC50, SW872 cells): 6.36
pIC50 ([2]; panel of 6 STS cell lines, read-out: IC50 values, growth of all STS cell lines): 5.88 to 6.36
Compound: Clc1cccc(N2CCN(c3cnnc4c(Cl)cccc34)CC2)c1 [Compound 1, 8-chloro-4-(4-(3-chlorophenyl)piperazin-1-yl)cinnoline]
pIC50 ([1]; 72-hour incubation, read-out: FOXC2-HMLER IC50): 6.63
pIC50 ([1]; scored relative to parent compound 1, 72 hours, read-out: Activity Score, inhibition of FOXC2-expressing HMLER cells by Formula I compounds): > 6.00
multinucleation phenotype in STS cell lines ([2]; all STS cell lines, 24-hour treatment): robust multinucleation phenotype
VIM filamentous architecture in HUVECs (VIM): promoted the destruction of fine VIM-containing filamentous structures
ability to form mammospheres in culture [3]: inhibited the ability
growth of additional mesenchymal breast cancer cell lines [4]: inhibit the growth
pIC50 (control HMLER cells): < 4.70
